Nine molecules from patent EP1212309B1, “CASPASE INHIBITOR” (LG Chem Investment, Ltd., priority 1999, dated 2001) can be followed below.

In one test the target is T1, caspase-3 (Homo sapiens, UniProt P42574).
T1 construct: made in house
T1 sequence (P42574 29-175 limits assumed): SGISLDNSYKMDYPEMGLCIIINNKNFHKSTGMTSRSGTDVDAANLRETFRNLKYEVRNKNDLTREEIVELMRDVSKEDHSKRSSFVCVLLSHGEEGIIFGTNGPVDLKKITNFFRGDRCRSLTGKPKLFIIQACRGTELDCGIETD
T1 sequence (P42574 176-277 limits assumed): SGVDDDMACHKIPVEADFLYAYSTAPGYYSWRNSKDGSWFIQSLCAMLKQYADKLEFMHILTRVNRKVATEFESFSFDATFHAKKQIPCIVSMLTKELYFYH
Put plainly: Screening on caspases inhibiting activity (recombinant enzyme, fluorogenic AMC substrate). It is filed as biochemical. To be noted: Irreversible Inhibitors; for kinact/KI: read-out: Kobs/[I] for caspase-3. On the procedure:
(§1) In the present experiment, recombinant caspases were purified from a transformed bacterium after human caspase genes were cloned into the expression vector pET, and then used in the experiment (Thornberry, N.A. et .al. Nature, 1992, 356, 768. Thombeny, N.A. Methods in Enzymology, 1994, 615.).
(§2) Enzymatic activity was measured by a known procedure (Walker N.P.C. et al., Cell 1994, 78, 343). Briefly, 10 ng of recombinant protein was mixed with 50 mM Tris(pH 7.0), 1mM DTT, 0.5 mM EDTA, 10% Glycerol buffer containing 1∼100 µM of enzyme substrate, Ac-YVAD-AMC or Ac-DEVD-AMC and then the changes by isolated AMC at 37°C were recorded. The inhibitory activity for caspases was calculated from the early enzyme reaction rate by measuring the changes with fluorescence excited at […] and emitted at 460 nm (Range; Ki<100nM).

In a further test the target is T2, caspase-1 (Homo sapiens, UniProt P29466).
T2 construct: made in house
T2 sequence (P29466 120-297 limits assumed): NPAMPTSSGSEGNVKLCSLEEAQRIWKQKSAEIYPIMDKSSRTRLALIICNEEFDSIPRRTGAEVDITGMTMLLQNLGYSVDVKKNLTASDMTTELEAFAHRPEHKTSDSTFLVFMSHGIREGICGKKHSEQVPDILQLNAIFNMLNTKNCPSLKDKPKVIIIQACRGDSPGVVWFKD
T2 sequence (P29466 317-404 limits assumed): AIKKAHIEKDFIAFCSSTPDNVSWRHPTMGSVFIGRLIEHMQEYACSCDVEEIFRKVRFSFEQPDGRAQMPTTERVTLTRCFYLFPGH
Described as above. It is filed as biochemical. The settings on record: Irreversible Inhibitors; for kinact/KI: read-out: Kobs/[I] for caspase-1. The protocol:
as §1, §2

In another test the test system is Jurkat T cell. Briefly: MTT assay of cell death induced by Anti-FAS antibody CH11. It is filed as cell-based. To be noted: Homo sapiens; Jurkat T cell treated with Anti-FAS antibody CH11, MTT; read-out: ED50 FAS Induced cell death.

pEC50: −log10 of the molar value.

Take `CC(C)[C@H](NC(=O)CCc1ccccc1)C1=NOC(Cc2ccccc2)(C(=O)N[C@@H](CC(=O)O)C(=O)COC(=O)c2c(Cl)cccc2Cl)C1` (mixture of isomers) [Compound 32, (3S)-3-{3-[2-methyl-(1S)-1-(phenylethylcarbonylamino)-propyl]-5-phenylmethyl-4,5-dihydro-isoxazole-5-carbonylamino}-4-keto-5-(2,6-dichlorobenzoyloxy)-pentanoic acid]: the kinact/KI worked out at 114 M⁻¹ s⁻¹ at caspase-3 and 130000 M⁻¹ s⁻¹ on caspase-1. Also, the pEC50 in the test with Jurkat T cell was 5.00 to 6.00.
As for `CC1(C(=O)N[C@@H](CC(=O)O)C(=O)COC(=O)c2c(Cl)cccc2Cl)CC([C@H](CCC(=O)O)NC(=O)CCC(=O)O)=NO1` (single isomer, unassigned) [Compound 72], the figures for the kinact/KI on caspase-3 and at caspase-1 were 176000 M⁻¹ s⁻¹ and 30800 M⁻¹ s⁻¹, respectively. The pEC50 with Jurkat T cell is 5.00 to 6.00.
The matching figures for `CCCCC1(C(=O)N[C@@H](CC(=O)O)C(=O)COC(=O)c2c(Cl)cccc2Cl)CC([C@@H](NC(=O)CCC(=O)O)C(C)C)=NO1` (single isomer, unassigned) [Compound 80]: 1.14e+06 M⁻¹ s⁻¹, 14900 M⁻¹ s⁻¹ and 5.00 to 6.00.
With `CCCC1(C(=O)N[C@@H](CC(=O)O)C(=O)COC(=O)c2c(Cl)cccc2Cl)CC([C@@H](NC(=O)CCC(=O)O)C(C)C)=NO1` (single isomer, unassigned) [Compound 76], the kinact/KI at caspase-3 is 197000 M⁻¹ s⁻¹; at caspase-1, 14000 M⁻¹ s⁻¹. Also, the pEC50 in the test with Jurkat T cell is 5.00 to 6.00.
On to `CC(C)[C@H](NC(=O)CCC(=O)O)C1=NOC(C)(C(=O)N[C@@H](CC(=O)O)C(=O)COC(=O)c2c(Cl)cccc2Cl)C1` (stereo partly drawn) [Compound 74, (3S)-3-{3-[2-methyl-(1S)-1-(succinoylamino)-propyl]-5-methyl-4,5-dihydro-isoxazole-5-carbonylamino}-4-keto-5-(2,6-dichlorobenzoyloxy)-pentanoic acid], for which the “Kobs/[I] for caspase-3” value at caspase-3 is 40900 M⁻¹ s⁻¹. Also, at caspase-1, the “Kobs/[I] for caspase-1” value stood at 14500 M⁻¹ s⁻¹.
The matching figures for `COCC1(C(=O)N[C@@H](CC(=O)O)C(=O)COC(=O)c2c(Cl)cccc2Cl)CC([C@@H](NC(=O)CCC(=O)O)C(C)C)=NO1` (stereo partly drawn) [Compound 87, (3S)-3-{3-[2-methyl-(1S)-1-(succinoylamino)-propyl]-5-methoxymethyl-4,5-dihydro-isoxazole-5-carbonylamino}-4-keto-5-(2,6-dichlorobenzoyloxy)-pentanoic acid]: 27400 M⁻¹ s⁻¹ and 3400 M⁻¹ s⁻¹.
Take `CC(C)[C@H](NC(=O)c1ccc2ccccc2n1)C1=NOC(Cc2ccccc2)(C(=O)N[C@@H](CC(=O)O)C(=O)COC(=O)c2c(Cl)cccc2Cl)C1` (stereo partly drawn) [Compound 42mp, (3S)-3-{3-[2-methyl-(1S)-1-(quinoline-2-yl-carbonylamino)-propyl]-5-phenylmethyl-4,5-dihydro-isoxazole-5-carbonylamino}-4-keto-5-(2,6-dichlorobenzoyloxy)-pentanoic acid]: the kinact/KI on caspase-3 was found to be 160 M⁻¹ s⁻¹; on caspase-1, 408000 M⁻¹ s⁻¹. Further, the pEC50 with Jurkat T cell is 5.00 to 6.00.
The matching figures for `CC(C)[C@H](NC(=O)c1cccc2ccccc12)C1=NOC(Cc2ccccc2)(C(=O)N[C@@H](CC(=O)O)C(=O)COC(=O)c2c(F)cccc2F)C1` (stereo partly drawn) [Compound 58, (3S)-3-{3-[2-methyl-(1S)-1-(naphthalene-1-carbonylamino)-propyl]-5-phenylmethyl-4,5-dihydro-isoxazole-5-carbonylamino}-4-keto-5-(2,6-difluorobenzoyloxy)-pentanoic acid]: 371 M⁻¹ s⁻¹, 577000 M⁻¹ s⁻¹ and 5.00 to 6.00.
As for `CC(C)[C@H](NC(=O)CCC(=O)O)C1=NOC(Cc2ccccc2)(C(=O)N[C@@H](CC(=O)O)C(=O)COC(=O)c2c(Cl)cccc2Cl)C1` (stereo partly drawn) [Compound 86, (3S)-3-{3-[2-methyl-(1S)-1-(succinoylamino)-propyl]-5-phenylmethyl-4,5-dihydro-isoxazole-5-carbonylamino}-4-keto-5-(2,6-dichlorobenzoyloxy)-pentanoic acid], the “Kobs/[I] for caspase-3” value on caspase-3 is 28000 M⁻¹ s⁻¹. Besides, the “Kobs/[I] for caspase-1” value at caspase-1 is 7560 M⁻¹ s⁻¹.
